Columns and labels:
Assay in all cases: Competitive isoTOP-ABPP, cell lysates
Type in all cases: binding
[1] = molecular target: CDK5 C157 (Q00535) (Homo sapiens, UniProt Q00535); settings: for isoTOP-ABPP reactivity ratio, Q00535_C157 / isoTOP-ABPP reactivity profile ratio, Q00535_C157: 500 μm
[2] = molecular target: T1, CYR61 C39 (O00622) (Homo sapiens, UniProt O00622)
T1 sequence (O00622 25-381): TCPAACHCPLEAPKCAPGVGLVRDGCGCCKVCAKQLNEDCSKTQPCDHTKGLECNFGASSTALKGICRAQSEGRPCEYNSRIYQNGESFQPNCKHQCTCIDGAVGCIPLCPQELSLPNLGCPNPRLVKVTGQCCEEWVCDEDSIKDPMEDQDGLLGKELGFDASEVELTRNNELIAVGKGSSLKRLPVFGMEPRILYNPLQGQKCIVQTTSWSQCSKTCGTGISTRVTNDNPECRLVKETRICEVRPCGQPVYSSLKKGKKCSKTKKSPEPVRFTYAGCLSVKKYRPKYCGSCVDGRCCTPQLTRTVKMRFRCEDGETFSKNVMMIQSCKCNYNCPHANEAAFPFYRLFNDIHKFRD

[3] = molecular target: RRAGC C358 (Q9HB90) (Homo sapiens, UniProt Q9HB90); settings: for isoTOP-ABPP reactivity ratio, Q9HB90_C358 / isoTOP-ABPP reactivity profile ratio, Q9HB90_C358: 500 μm
Sequence of RRAGC C358 (Q9HB90) (Q9HB90 2-399 limits assumed): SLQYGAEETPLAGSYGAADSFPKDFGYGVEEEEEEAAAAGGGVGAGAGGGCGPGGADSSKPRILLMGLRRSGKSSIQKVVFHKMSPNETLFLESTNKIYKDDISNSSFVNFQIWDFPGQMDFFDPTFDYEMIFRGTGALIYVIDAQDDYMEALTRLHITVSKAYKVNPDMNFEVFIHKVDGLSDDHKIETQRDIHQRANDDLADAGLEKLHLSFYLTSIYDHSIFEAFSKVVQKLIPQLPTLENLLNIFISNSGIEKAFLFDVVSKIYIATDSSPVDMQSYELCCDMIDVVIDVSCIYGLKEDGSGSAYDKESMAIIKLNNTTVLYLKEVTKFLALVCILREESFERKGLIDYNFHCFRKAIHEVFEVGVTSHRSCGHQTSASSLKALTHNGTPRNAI
Sequence of RRAGC C358 (Q9HB90) (Q7L523 whole entry partner): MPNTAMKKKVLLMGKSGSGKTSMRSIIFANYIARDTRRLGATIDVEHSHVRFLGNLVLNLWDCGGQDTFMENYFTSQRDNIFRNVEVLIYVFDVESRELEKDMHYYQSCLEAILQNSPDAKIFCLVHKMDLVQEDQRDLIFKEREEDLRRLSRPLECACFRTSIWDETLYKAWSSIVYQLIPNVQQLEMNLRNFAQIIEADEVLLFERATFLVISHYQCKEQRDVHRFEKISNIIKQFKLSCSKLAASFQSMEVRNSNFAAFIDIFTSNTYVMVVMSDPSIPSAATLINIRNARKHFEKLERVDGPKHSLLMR

[4] = molecular target: RRAGC C377 (Q9HB90) (Homo sapiens, UniProt Q9HB90); settings: for isoTOP-ABPP reactivity ratio, Q9HB90_C377 / isoTOP-ABPP reactivity profile ratio, Q9HB90_C377: 500 μm
Sequence of RRAGC C377 (Q9HB90) (Q9HB90 2-399 limits assumed): as the sequence (Q9HB90 2-399 limits assumed) above
Sequence of RRAGC C377 (Q9HB90) (Q7L523 whole entry partner): as the sequence (Q7L523 whole entry partner) above

[5] = molecular target: USP16 C205 (Q9Y5T5) (Homo sapiens, UniProt Q9Y5T5); settings: for isoTOP-ABPP reactivity ratio, Q9Y5T5_C205 / isoTOP-ABPP reactivity profile ratio, Q9Y5T5_C205: 500 μm
Sequence of USP16 C205 (Q9Y5T5) (Q9Y5T5 whole entry): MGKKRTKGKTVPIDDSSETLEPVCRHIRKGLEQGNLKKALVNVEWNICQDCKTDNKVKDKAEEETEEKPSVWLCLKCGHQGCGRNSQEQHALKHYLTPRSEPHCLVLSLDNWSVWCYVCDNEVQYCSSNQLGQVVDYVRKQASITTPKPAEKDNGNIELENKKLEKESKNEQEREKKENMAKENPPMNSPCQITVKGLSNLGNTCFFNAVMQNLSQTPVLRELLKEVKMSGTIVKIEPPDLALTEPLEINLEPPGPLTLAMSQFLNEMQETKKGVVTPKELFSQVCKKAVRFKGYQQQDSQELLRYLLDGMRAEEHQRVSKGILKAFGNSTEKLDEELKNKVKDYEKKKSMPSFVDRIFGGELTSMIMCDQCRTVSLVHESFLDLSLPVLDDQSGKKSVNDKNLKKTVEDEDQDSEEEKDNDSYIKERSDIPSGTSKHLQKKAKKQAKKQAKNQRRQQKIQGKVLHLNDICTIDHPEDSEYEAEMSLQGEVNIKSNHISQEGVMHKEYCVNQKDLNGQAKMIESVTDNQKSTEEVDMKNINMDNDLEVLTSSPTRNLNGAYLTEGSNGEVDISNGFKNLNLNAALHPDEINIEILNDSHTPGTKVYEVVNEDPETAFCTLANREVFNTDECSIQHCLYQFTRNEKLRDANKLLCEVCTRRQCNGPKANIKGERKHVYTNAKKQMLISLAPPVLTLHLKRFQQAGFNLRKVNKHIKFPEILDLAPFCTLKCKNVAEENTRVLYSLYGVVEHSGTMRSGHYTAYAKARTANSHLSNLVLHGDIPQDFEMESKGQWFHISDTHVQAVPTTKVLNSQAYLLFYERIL

[6] = molecular target: T2, USP48 C39 (Q86UV5) (Homo sapiens, UniProt Q86UV5); settings: for isoTOP-ABPP reactivity ratio, Q86UV5_C39 / isoTOP-ABPP reactivity profile ratio, Q86UV5_C39: 500 μm
T2 sequence (Q86UV5 1-1035): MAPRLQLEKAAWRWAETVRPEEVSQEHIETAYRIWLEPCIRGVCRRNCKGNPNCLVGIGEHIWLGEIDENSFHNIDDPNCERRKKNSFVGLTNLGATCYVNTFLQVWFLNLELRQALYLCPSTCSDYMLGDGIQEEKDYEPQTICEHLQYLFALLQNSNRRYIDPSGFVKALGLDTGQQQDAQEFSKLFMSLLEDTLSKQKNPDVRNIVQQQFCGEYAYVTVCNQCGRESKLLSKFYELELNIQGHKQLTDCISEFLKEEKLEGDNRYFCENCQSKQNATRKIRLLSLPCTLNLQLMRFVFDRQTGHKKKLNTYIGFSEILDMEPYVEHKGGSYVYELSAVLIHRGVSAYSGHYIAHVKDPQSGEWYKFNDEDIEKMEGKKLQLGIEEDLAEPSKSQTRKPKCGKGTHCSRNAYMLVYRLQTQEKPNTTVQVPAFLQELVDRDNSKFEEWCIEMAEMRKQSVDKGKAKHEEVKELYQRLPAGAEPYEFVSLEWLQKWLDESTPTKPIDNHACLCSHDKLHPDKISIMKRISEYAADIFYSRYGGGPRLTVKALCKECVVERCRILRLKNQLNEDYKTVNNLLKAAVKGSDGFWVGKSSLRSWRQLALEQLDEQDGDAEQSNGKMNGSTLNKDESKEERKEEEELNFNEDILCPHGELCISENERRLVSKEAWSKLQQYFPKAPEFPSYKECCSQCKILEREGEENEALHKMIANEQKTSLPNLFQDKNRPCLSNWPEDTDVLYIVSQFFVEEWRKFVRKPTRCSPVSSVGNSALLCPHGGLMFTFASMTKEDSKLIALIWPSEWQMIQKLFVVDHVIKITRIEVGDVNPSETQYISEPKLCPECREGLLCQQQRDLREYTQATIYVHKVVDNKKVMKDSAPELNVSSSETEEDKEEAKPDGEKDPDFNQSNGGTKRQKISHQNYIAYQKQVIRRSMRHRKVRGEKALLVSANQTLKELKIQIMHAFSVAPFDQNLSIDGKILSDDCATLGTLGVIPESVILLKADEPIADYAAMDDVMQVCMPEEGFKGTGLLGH

Sequence of CDK5 C157 (Q00535) (Q00535 whole entry): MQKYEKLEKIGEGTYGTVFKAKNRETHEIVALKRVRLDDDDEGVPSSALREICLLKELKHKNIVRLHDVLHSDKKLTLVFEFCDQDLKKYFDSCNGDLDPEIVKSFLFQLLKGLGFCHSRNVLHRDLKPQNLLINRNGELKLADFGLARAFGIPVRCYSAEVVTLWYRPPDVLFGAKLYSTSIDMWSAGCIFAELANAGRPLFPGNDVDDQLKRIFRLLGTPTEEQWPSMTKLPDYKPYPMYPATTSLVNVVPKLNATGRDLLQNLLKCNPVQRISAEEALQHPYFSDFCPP

SMILES: O=C(/C=C/c1ccccc1)Nc1cc(C(F)(F)F)cc(C(F)(F)F)c1 [compound 26]
- isoTOP-ABPP ratio (reactivity profile), Q00535_C157 ([1]; 500 μm in-vitro ramos): 0.9

SMILES: COc1ccccc1OCCNC(=O)CCl [compound 28]
- isoTOP-ABPP ratio (reactivity profile), Q00535_C157 ([1]; 500 μm in-vitro ramos): 1.0
- isoTOP-ABPP ratio (reactivity profile), Q00535_C157 ([1]; 500 μm in-vitro ramos_231): 0.9
- isoTOP-ABPP ratio (reactivity profile), O00622_C39 ([2]; 500 μm in-vitro ramos_231): 1.0
- isoTOP-ABPP ratio (reactivity profile), Q9HB90_C358 ([3]; 500 μm in-vitro ramos_231): 1.1
- isoTOP-ABPP ratio (reactivity profile), Q9HB90_C377 ([4]; 500 μm in-vitro ramos_231): 1.3
- isoTOP-ABPP ratio (reactivity profile), Q9Y5T5_C205 ([5]; 500 μm in-vitro ramos): 1.6

SMILES: O=C(CCl)N1CCN(CC(=O)N2CCOCC2)CC1 [compound 29]
- isoTOP-ABPP ratio (reactivity profile), Q9HB90_C377 ([4]; 500 μm in-vitro ramos_231): 1.3
- isoTOP-ABPP ratio (reactivity profile), Q86UV5_C39 ([6]; 500 μm in-vitro ramos_231): 1.2

SMILES: CCN(CC)c1ccc(S(N)(=O)=O)cc1NC(=O)CCl [compound 30]
- isoTOP-ABPP ratio (reactivity profile), Q9HB90_C358 ([3]; 500 μm in-vitro ramos): 1.0
- isoTOP-ABPP ratio (reactivity profile), Q9HB90_C377 ([4]; 500 μm in-vitro ramos): 1.4

SMILES: C=CC(=O)N(Cc1cccnc1)c1cc(C(F)(F)F)cc(C(F)(F)F)c1 [compound 31]
- isoTOP-ABPP reactivity ratio, Q00535_C157 ([1]; in-vitro_ramos): 1.1
- isoTOP-ABPP reactivity ratio, O00622_C39 ([2]; 500 μm, in-vitro_ramos_231): 1.2
- isoTOP-ABPP reactivity ratio, Q9HB90_C358 ([3]; in-vitro_ramos_231): 2.3
- isoTOP-ABPP reactivity ratio, Q9HB90_C377 ([4]; in-vitro_ramos_231): 2.2

SMILES: CC(C)(C)c1cc(NC(=O)CCl)on1 [compound 32]
- isoTOP-ABPP reactivity ratio, Q00535_C157 ([1]; in-vitro_ramos): 1.7
- isoTOP-ABPP reactivity ratio, Q00535_C157 ([1]; in-vitro_ramos_231): 1.7
- isoTOP-ABPP reactivity ratio, Q9HB90_C358 ([3]; in-vitro_ramos): 1.2
- isoTOP-ABPP reactivity ratio, Q9HB90_C358 ([3]; in-vitro_ramos_231): 1.9
- isoTOP-ABPP reactivity ratio, Q9HB90_C377 ([4]; in-vitro_ramos): 1.5

SMILES: O=C(CCl)N(Cc1ccc(F)cc1)C12CC3CC(CC(C3)C1)C2 [compound 34]
- isoTOP-ABPP reactivity ratio, Q00535_C157 ([1]; in-vitro_ramos_231): 0.7

SMILES: O=C(CCl)Nc1ccccc1C1CCCCCC1 [compound 35]
- isoTOP-ABPP reactivity ratio, Q86UV5_C39 ([6]; in-vitro_ramos): 1.0

SMILES: C=CC(=O)N1CCC(c2noc3ccc(F)cc23)CC1 [compound 37]
- isoTOP-ABPP reactivity ratio, Q86UV5_C39 ([6]; in-vitro_ramos): 0.7

SMILES: C=CC(=O)Nc1cc(C)c(Br)cc1C [compound 40]
- isoTOP-ABPP reactivity ratio, Q9Y5T5_C205 ([5]; in-vitro_ramos): 0.9
- isoTOP-ABPP reactivity ratio, Q86UV5_C39 ([6]; in-vitro_ramos): 1.6

SMILES: Cc1ccc(C=C(C#N)C(=O)NCCN2CCOCC2)cc1 [compound 41]
- isoTOP-ABPP reactivity ratio, Q00535_C157 ([1]; in-vitro_ramos_231): 1.5
- isoTOP-ABPP reactivity ratio, Q9HB90_C358 ([3]; in-vitro_ramos_231): 1.3
- isoTOP-ABPP reactivity ratio, Q9HB90_C377 ([4]; in-vitro_ramos_231): 1.1
- isoTOP-ABPP reactivity ratio, Q9Y5T5_C205 ([5]; in-vitro_ramos_231): 0.8

SMILES: N#CC(=Cc1ccc(-c2ccccc2Cl)o1)C(N)=O [compound 42]
- isoTOP-ABPP reactivity profile ratio, Q9Y5T5_C205 ([5]; in-vitro_ramos): 1.5

SMILES: COc1cc(NC(=O)CCl)cc(OC)c1 [compound 43]
- isoTOP-ABPP reactivity profile ratio, Q00535_C157 ([1]; in-vitro_ramos): 1.2
- isoTOP-ABPP reactivity profile ratio, Q86UV5_C39 ([6]; in-vitro_ramos_231): 1.5

SMILES: C=CC(=O)N(c1ccccc1)C1CCCCC1 [compound 46]
- isoTOP-ABPP reactivity profile ratio, O00622_C39 ([2]; 500 μm, in-vitro_ramos_231): 1.9
- isoTOP-ABPP reactivity profile ratio, Q9HB90_C358 ([3]; in-vitro_ramos_231): 1.1
- isoTOP-ABPP reactivity profile ratio, Q9Y5T5_C205 ([5]; in-vitro_ramos_231): 1.0

SMILES: O=C(CCl)N1CCc2cc(Br)ccc21 [compound 50]
- isoTOP-ABPP reactivity profile ratio, O00622_C39 ([2]; 500 μm, in-vitro_ramos_231): 2.3

SMILES: O=C(CCl)Nc1cccc2ncccc12 [compound 51]
- isoTOP-ABPP reactivity profile ratio, Q00535_C157 ([1]; in-vitro_ramos): 1.0
- isoTOP-ABPP reactivity profile ratio, Q9HB90_C377 ([4]; in-vitro_ramos_231): 0.6
- isoTOP-ABPP reactivity profile ratio, Q9Y5T5_C205 ([5]; in-vitro_ramos): 3.2
- isoTOP-ABPP reactivity profile ratio, Q9Y5T5_C205 ([5]; in-vitro_ramos_231): 1.7
- isoTOP-ABPP reactivity profile ratio, Q86UV5_C39 ([6]; in-vitro_ramos): 1.8

SMILES: O=C(CCl)Nc1ccc(-c2ccccc2)cc1 [compound 52]
- isoTOP-ABPP reactivity profile ratio, Q86UV5_C39 ([6]; in-vitro_ramos_231): 0.9

SMILES: C=CC(=O)N1CCC(Cc2ccccc2)CC1 [compound 53]
- isoTOP-ABPP reactivity profile ratio, Q00535_C157 ([1]; in-vitro_ramos): 0.8
- isoTOP-ABPP reactivity profile ratio, Q00535_C157 ([1]; in-vitro_ramos_231): 1.2
- isoTOP-ABPP reactivity profile ratio, Q9HB90_C358 ([3]; in-vitro_ramos): 0.6
- isoTOP-ABPP reactivity profile ratio, Q9HB90_C377 ([4]; in-vitro_ramos): 1.1
- isoTOP-ABPP reactivity profile ratio, Q9Y5T5_C205 ([5]; in-vitro_ramos_231): 1.1
